Results taken from patent US12568967B2, “Compositions comprising pyridine carboxylate herbicides with synthetic auxin herbicides or auxin transport inhibitors” (priority 2018, dated 2026).
Several values for one entry are separate records, joined by “and”; a condition that tells them apart may be missing. Equal entries are not always repeated. Where two headings read alike, the source gives them in different places.

Columns and labels:
Type in all cases: in vivo
[1] = test system: Brassica napus (winter rape, BRSNW); experiment: Greenhouse postemergence trial BRSNW; conditions: for plant injury at 10 g/ha / plant injury at 15 g/ha: Brassica napus, post-emergence
[2] = test system: Salsola kali (Russian thistle, SASKR); experiment: Greenhouse postemergence trial SASKR;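 further: greenhouse plants sprayed at second or third true leaf stage, injury rated by eye after 20-22 d against solvent-blank controls, 0 meaning no injury, 100 complete kill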
[3] = test system: Hordeum vulgare (spring barley, HORVS)
[4] = test system: Cyanus segetum (cornflower, CENCY); experiment: Greenhouse postemergence trial CENCY; conditions: CENCY; for % visual injury Obs: alone; for % visual injury, Obs: applied alone
Description: (§1) Seeds of the desired test plant species were planted in a 90:10% v/v (volume/volume) mixture of PRO-MIX® BX (Premier Tech Horticulture, Quakertown, PA, USA) and PROFILE® GREENS GRADE™ (Profile Products LLC, Buffalo Grove, IL, USA) planting mixture, which typically has a pH of 5.2 to 6.2 and an organic matter content of at least 50 percent, in plastic pots with a surface area of 103.2 square centimeters (cm^2). […] The plants were grown for 7-36 days (d) in a greenhouse with an approximate 14-hour (h) photo-period which was maintained at about 23° C. during the day and 22° C. during the night. Nutrients and water were added on a regular basis and supplemental lighting was provided with overhead metal halide 1000-Watt lamps as necessary. The plants were employed for testing when they reached the second or third true leaf stage.
(§2) Emulsifiable concentrates of each of each pyridine carboxylate herbicide (Compound A or Compound B) were prepared at 100 grams acid equivalent per liter (g ae/L). The emulsifiable concentrates also included a safener, cloquintocet-mexyl, at 120 grams active ingredient per liter (g ai/L), unless otherwise noted below. An aliquot of each emulsifiable concentrate was placed in a 25 mL glass vial and diluted with an aqueous mixture of 1.25% (v/v) ACTIROB® B esterified rapeseed oil (Bayer Crop Science, Research Triangle Park, NC, USA) or MSO® Concentrate with LECI-TECH® methylated soybean oil (Loveland Products, Loveland, CO, USA) to obtain concentrated stock solutions at the highest application rate for each herbicide, based upon a 12 milliliter (mL) application volume at a rate of 187 liters per hectare (L/ha). The concentrated stock solutions were further diluted with an aqueous mixture of 1.25% v/v ACTIROB® B or MSO® Concentrate with LECI-TECH® to obtain stock solutions at reduced application rates for each herbicide. Spray solutions of the herbicide combinations (Compound A or Compound B plus synthetic auxin herbicide or auxin transport inhibitor) were prepared by adding weighed amounts or aliquots of the synthetic auxin herbicide or auxin transport inhibitor to the stock solutions of Compound A or Compound B to form 12-mL spray solutions in two-way combinations.
(§3) The spray solutions were applied to the plant material with an overhead Mandel track sprayer equipped with 8002E nozzles calibrated to deliver 187 L/ha over an application area of 0.503 square meters (m^2) at a spray height of 18 inches (43 centimeters (cm)) above the average plant canopy. Control plants were sprayed in the same manner with the solvent blank. All pyridine carboxylate herbicide (component a) application rates are given as “g ae/ha” and all synthetic auxin herbicide or auxin transport inhibitor (component b) application rates are given as “g ai/ha.”
(§4) The treated plants and control plants were placed in a greenhouse as described above and watered by sub-irrigation to prevent wash-off of the test compounds. After 20-22 d, the condition of the test plants as compared with that of the control plants was determined visually and scored on a scale of 0 to 100 percent where 0 corresponds to no injury and 100 corresponds to complete kill.

[5] = test system: Veronica persica (bird's-eye speedwell, VERPE); experiment: Greenhouse postemergence trial VERPE; conditions: for % visual injury Obs / visual injury, Obs / % visual injury, Obs: VERPE; for % visual injury, Obs: applied alone
Description: as §1, §2, §3, §4

[6] = test system: Capsella bursa-pastoris (shepherd's purse, CAPBP); experiment: Greenhouse postemergence trial CAPBP; conditions: CAPBP; for % visual injury, Obs: applied alone
Description: as §1, §2, §3, §4

[7] = test system: Matricaria inodora (false chamomile, MATIN); experiment: Greenhouse postemergence trial MATIN; conditions: MATIN; for % visual injury, Obs: applied alone
[8] = test system: Rumex obtusifolius (broad-leaf dock, RUMOB); experiment: Greenhouse postemergence trial RUMOB; conditions: Compound A 10 g/ha
Description: as §1, §2, §3, §4

[9] = test system: Abutilon theophrasti (velvetleaf, ABUTH); experiment: Greenhouse postemergence trial ABUTH; conditions: Compound A 10 g/ha
[10] = test system: Ipomoea hederacea (ivyleaf morningglory, IPOHE); experiment: Greenhouse postemergence trial IPOHE; conditions: Compound A 10 g/ha
[11] = test system: Alopecurus myosuroides (blackgrass, ALOMY); experiment: Greenhouse postemergence trial ALOMY; conditions: Compound A 10 g/ha
Description: as §1
Emulsifiable concentrates of each of each pyridine carboxylate herbicide (Compound A or Compound B) were prepared at 100 grams acid equivalent per liter (g ae/L). The emulsifiable concentrates also included a safener, cloquintocet-mexyl, at 120 grams active ingredient per liter (g ai/L), unless otherwise noted below. An aliquot of each emulsifiable concentrate was placed in a 25 mL glass vial and diluted with an aqueous mixture of 1.25% (v/v) ACTIROB® B esterified rapeseed oil (Bayer Crop Science, Research Triangle Park, NC, USA) or MSO® Concentrate with LECI-TECH® methylated soybean oil (Loveland Products, Loveland, CO, USA) to obtain concentrated stock solutions at the highest application rate for each herbicide, based upon a 12 milliliter (mL) application volume at a rate of 187 liters per hectare (L/ha). The concentrated stock solutions were further diluted with an aqueous mixture of 1.25% v/v ACTIROB® B or MSO® Concentrate with LECI-TECH® to obtain stock solutions at reduced application rates for each herbicide. Spray solutions of the herbicide combinations (Compound A or Compound B plus synthetic auxin herbicide or auxin transport inhibitor) were prepared by adding weighed amounts or aliquots of the synthetic auxin herbicide or auxin transport inhibitor to the stock solutions of Compound A or Compound B to form 12-mL spray solutions in two-way combinations. […]
as §4

[12] = test system: Lolium multiflorum (Italian ryegrass, LOLMU); experiment: Greenhouse postemergence trial LOLMU; conditions: Compound A 10 g/ha
Description: as §1, §2, §3, §4

[13] = test system: Digitaria sanguinalis (large crabgrass, DIGSA); experiment: Greenhouse postemergence trial DIGSA; conditions: Compound A 10 g/ha
Description: as §1, §2, §3, §4

[14] = Hordeum vulgare (spring barley, HORVS), in vivo

N#CCOC(=O)c1nc(-c2ccc3cc[nH]c3c2F)c(F)c(N)c1Cl [Compound A, cyanomethyl 4-amino-3-chloro-5-fluoro-6-(7-fluoro-1H-indol-6-yl)pyridine-2-carboxylate]
visual injury, Obs ([1]; BRSNW, Compound A 10 g/ha alone): 65% | visual injury, Obs ([1]; BRSNW, Compound A 15 g/ha alone): 80% | % visual injury (Obs) ([1]; BRSNW, alone 10 g/ha): 68% | plant injury at 10 g/ha ([1]; BRSNW, Compound A 10 g/ha, read-out: % visual injury Obs): 65% | plant injury at 10 g/ha ([1]; BRSNW, Compound A 10 g/ha, read-out: % visual injury, Obs): 68% | plant injury at 15 g/ha ([1]; BRSNW, Compound A 15 g/ha, read-out: % visual injury Obs): 80% | plant injury at 10 g/ha ([1]; BRSNW, alone, 10 g/ha, read-out: % visual injury Obs): 65% | plant injury at 15 g/ha ([1]; BRSNW, alone, 15 g/ha, read-out: % visual injury Obs): 80% | plant injury at 15 g/ha ([1]; BRSNW, applied alone, 15 g/ha, read-out: % visual injury, Obs): 80% | BRSNW Obs (% visual injury) ([1]; Compound A 10 g/ha, without safener): 65% | SASKR Obs (% visual injury) ([2]; Compound A 10 g/ha): 65% and 63% | SASKR % visual injury Obs ([2]; Compound A 10 g/ha (Table 42)): 65% | SASKR % visual injury Obs ([2]; Compound A 10 g/ha (Table 43)): 65% | SASKR % visual injury Obs ([2]; Compound A 10 g/ha (Table 44)): 65% | % visual injury, Obs ([2]; SASKR, Compound A 10 g/ha): 65% | visual injury, Obs ([2]; SASKR, Compound A 10 g/ha alone): 50% | visual injury, Obs ([2]; SASKR, Compound A 15 g/ha alone): 50% | % visual injury (Obs) ([2]; SASKR, alone, 10 g/ha): 63% | % visual injury Obs ([2]; SASKR, alone, 10 g/ha): 50% | % visual injury Obs ([2]; SASKR, alone, 15 g/ha): 50% | % visual injury, Obs ([2]; SASKR, applied alone, 10 g/ha): 50% and 63% | % visual injury, Obs ([2]; SASKR, applied alone, 15 g/ha): 50% | pest or weed control at […] ([2]; Salsola kali, post-emergence, SASKR, Compound A 7.5 g/ha, read-out: % visual injury Obs): 30% | pest or weed control at 10 g/ha ([2]; Salsola kali, post-emergence, SASKR, Compound A 10 g/ha, read-out: % visual injury Obs): 50% | pest or weed control at 15 g/ha ([2]; Salsola kali, post-emergence, SASKR, Compound A 15 g/ha, read-out: % visual injury Obs): 50% | HORVS Obs (% visual injury) ([3]; Compound A 10 g/ha): 0% | HORVS % visual injury Obs ([3]; Compound A 10 g/ha (Table 42)): 0% | HORVS % visual injury Obs ([3]; Compound A 10 g/ha (Table 43)): 0% | HORVS % visual injury Obs ([3]; Compound A 10 g/ha (Table 44)): 0% | % visual injury Obs ([3]; HORVS, Compound A 10 g/ha): 0% | % visual injury, Obs ([3]; HORVS, Compound A 10 g/ha): 0% | visual injury, Obs ([3]; HORVS, Compound A 10 g/ha alone): 0% | % visual injury Obs ([3]; HORVS, Compound A 15 g/ha): 0% | visual injury, Obs ([3]; HORVS, Compound A 15 g/ha alone): 0% | % visual injury (Obs) ([3]; HORVS, alone 10 g/ha): 0% | % visual injury Obs ([3]; HORVS, alone 10 g/ha): 0% | % visual injury Obs ([3]; HORVS, alone, 15 g/ha): 0% | % visual injury, Obs ([3]; HORVS, applied alone, 10 g/ha): 0% | % visual injury, Obs ([3]; HORVS, applied alone, 15 g/ha): 0% | % visual injury (crop phytotoxicity) [3, 14]: 0% | % visual injury, Obs (crop phytotoxicity) [3, 14]: 0% | % visual injury (crop phytotoxicity) ([3]; c1-2 Compound A 7.5/10, c3 Quinclorac 140, c4-5 A 7.5/10 + Quinclorac 140 g/ha): 0% | % visual injury (crop phytotoxicity) ([3]; c1-3 Compound A 7.5/10/15, c4-5 Fluroxypyr-MHE 100/140, c6-8, c9-11 A 7.5/10/15 + Fluroxypyr-MHE 100, 140 g/ha): 0% | % visual injury (crop phytotoxicity) ([3]; c1-3 Compound A 7.5/10/15, c4 Aminopyralid 5, c5-7 A 7.5/10/15 + Aminopyralid 5 g/ha): 0% | % visual injury (crop phytotoxicity) ([3]; c1-3 Compound A 7.5/10/15, c4 Halauxifen-methyl 6, c5-7 A 7.5/10/15 + Halauxifen-methyl 6 g/ha): 0% | visual injury, Obs ([4]; Compound A 10 g/ha alone): 100% | visual injury, Obs ([4]; Compound A 15 g/ha alone): 100% | % visual injury Obs ([4]; 10 g/ha): 100% | % visual injury Obs ([4]; 15 g/ha): 100% | % visual injury, Obs ([4]; 10 g/ha): 100% | % visual injury, Obs ([4]; 15 g/ha): 100% | pest or weed control at […] ([4]; Centaurea cyanus, post-emergence, Compound A 7.5 g/ha, read-out: % visual injury Obs): 100% | pest or weed control at 10 g/ha ([4]; Centaurea cyanus, post-emergence, Compound A 10 g/ha, read-out: % visual injury Obs): 100% | pest or weed control at 15 g/ha ([4]; Centaurea cyanus, post-emergence, Compound A 15 g/ha, read-out: % visual injury Obs): 100% | % visual injury Obs ([5]; Compound A 10 g/ha): 85% | visual injury, Obs ([5]; Compound A 10 g/ha alone): 85% | % visual injury Obs ([5]; Compound A 15 g/ha): 95% | visual injury, Obs ([5]; Compound A 15 g/ha alone): 95% | % visual injury Obs ([5]; alone, 10 g/ha): 85% | % visual injury Obs ([5]; alone, 15 g/ha): 95% | % visual injury, Obs ([5]; 10 g/ha): 85% | % visual injury, Obs ([5]; 15 g/ha): 95% | pest or weed control at […] ([5]; Veronica persica, post-emergence, VERVE, Compound A 7.5 g/ha, read-out: % visual injury Obs): 80% | pest or weed control at 10 g/ha ([5]; Veronica persica, post-emergence, VERVE, Compound A 10 g/ha, read-out: % visual injury Obs): 85% | pest or weed control at 15 g/ha ([5]; Veronica persica, post-emergence, VERVE, Compound A 15 g/ha, read-out: % visual injury Obs): 95% | visual injury, Obs ([6]; Compound A 10 g/ha alone): 50% | visual injury, Obs ([6]; Compound A 15 g/ha alone): 85% | % visual injury (Obs) ([6]; alone 10 g/ha): 78% | % visual injury Obs ([6]; alone 10 g/ha): 50% | % visual injury Obs ([6]; alone, 15 g/ha): 85% | % visual injury, Obs ([6]; 10 g/ha): 50% | % visual injury, Obs ([6]; 15 g/ha): 85% | pest or weed control at […] ([6]; Capsella bursa-pastoris, post-emergence, Compound A 7.5 g/ha, read-out: % visual injury Obs): 50% | pest or weed control at 10 g/ha ([6]; Capsella bursa-pastoris, post-emergence, Compound A 10 g/ha, read-out: % visual injury Obs): 50% | pest or weed control at 15 g/ha ([6]; Capsella bursa-pastoris, post-emergence, Compound A 15 g/ha, read-out: % visual injury Obs): 85% | visual injury, Obs ([7]; Compound A 10 g/ha alone): 60% | visual injury, Obs ([7]; Compound A 15 g/ha alone): 60% | % visual injury (Obs) ([7]; alone 10 g/ha): 93% | % visual injury Obs ([7]; alone 10 g/ha): 60% | % visual injury Obs ([7]; alone, 15 g/ha): 60% | % visual injury, Obs ([7]; 10 g/ha): 60% | % visual injury, Obs ([7]; 15 g/ha): 60% | pest or weed control at […] ([7]; Tripleurospermum inodorum, post-emergence, Compound A 7.5 g/ha, read-out: % visual injury Obs): 30% | pest or weed control at 10 g/ha ([7]; Tripleurospermum inodorum, post-emergence, Compound A 10 g/ha, read-out: % visual injury Obs): 60% | pest or weed control at 15 g/ha ([7]; Tripleurospermum inodorum, post-emergence, Compound A 15 g/ha, read-out: % visual injury Obs): 60% | RUMOB Obs (% visual injury) [8]: 10% | RUMOB Obs (% visual injury) ([8]; without safener): 35% | % visual injury, Obs ([8]; RUMOB): 35% | % visual injury, Obs ([9]; ABUTH): 75% | ABUTH Obs (% visual injury) [9]: 78% | ABUTH Obs (% visual injury) ([9]; without safener): 75% | IPOHE Obs (% visual injury) ([10]; without safener): 15% | % visual injury, Obs ([10]; IPOHE): 15% | % visual injury, Obs ([11]; ALOMY): 0% | ALOMY Obs (% visual injury) ([11]; without safener): 0% | LOLMU Obs (% visual injury) [12]: 0% | LOLMU Obs (% visual injury) ([12]; without safener): 0% | % visual injury, Obs ([12]; LOLMU): 0% | DIGSA Obs (% visual injury) [13]: 25% | DIGSA Obs (% visual injury) ([13]; without safener): 8% | % visual injury, Obs ([13]; DIGSA): 8%
